# Test: pH measurement of formulations and panthenol solutions (Experiments A-C, E)
# Format: physicochemical
# Protocol: Experiment A: AMP (0.0006%) was added to NRI-ANA-14 to replicate the AMP concentration in NRI-ANA-08. After AMP addition, the pH of NRI-ANA-08 was 4.1, and the pH of NRI-ANA-14 (+0.0006% AMP) was 4.2. This supported the hypothesis.
# Experiment B: AMP (0.012%) was added to NRI-ANA-14 to replicate the AMP concentration in NRI-ANA-13. After AMP addition, the pH of NRI-ANA-13 was 4.8, and the pH of NRI-ANA-14 (+0.012% AMP) was 4.8. This supported the hypothesis.
# Experiment C: A modified NRI-ANA-14 formulation containing 1.3% TEC and citric acid equivalent to 0.7% TEC was prepared. A control NRI-ANA-14 formulation was subjected to a stability study according to the method set forth in Example 19. After six months at 40° C., the pH of the control NRI-ANA-14 formulation was 2.6, while the pH of the modified NRI-ANA-14 formulation was 1.6. This supported the hypothesis.
# Experiment E: The pH of 10% aqueous solution of D,L- and D-panthenol were measured. The pH of 10% D,L-panthenol was 6.7, but the pH of 10% D-panthenol was 9.4. This supported the hypothesis.
row,Substance,pH of 10% aqueous solution
1,"2,4-dihydroxy-N-(3-hydroxypropyl)-3,3-dimethyl-butanamide [D,L-panthenol]",6.7
2,"(2R)-2,4- dihydroxy-N- (3- hydroxy- propyl)-2,3,3- trimethyl- butanamide [D-panthenol]",9.4
